Legend:
M. incognita J2s [1] = assay: Tomato invasion assay with uNLP pre-treated J2s; assay type: in vivo, Meloidogyne incognita; conditions: for % Invasion: mean
Procedure: (§1) Predicted uNLPs from both M. incognita and G. pallida were synthesised by EZBiolab and dissolved into pH adjusted ddH2O to make a 5 mM stock which was aliquoted and stored at -20°C. J2s of both M. incognita and G. pallida were incubated for 24 hours in 200 μl of each peptide in a 24 well plate (SPL Lifesciences, South Korea) at a defined concentration.
(§2) Tomato seeds were sterilised with 2.5% NaOCl for 15 minutes, washed 5 times in ddH20 and germinated on 0.5% Murashige and Skoog plates at 23°C. […] Invasion assays were performed by mixing 500 pre-treated M. incognita or G. pallida J2s with agar slurry and a single tomato seedling (2 days post germination) in a 6 well plate. Assays were left at 23°C for 24 hours in the case of M. incognita and at 18°C for 24 hours in the case of G. pallida under a 16 hour light and 8 hour darkness cycle. Seedlings were stained using acid fuschin [69] and the number of nematodes within the roots counted. At least five seedlings were used for M. incognita infections assays, with at least 15 seedlings used for G. pallida infections assays (due to increased variation).

G. pallida J2s [2] = assay: Chemosensory (chemotaxis) assay of uNLP pre-treated J2s towards tomato root exudate; assay type: in vivo, Globodera pallida
Procedure: as §1
A 60 mm Petri dish was divided into two segments, a positive and a negative side, with a 0.5 cm 'dead zone' either side of the centre point. The petri dish was filled with 15 ml of 0.25% w/v agar which was allowed to solidify. 3 ml of 0.25% w/v agar slurry in spring water (pH 7, agitated with a magnetic stirrer for several hours to give a smooth consistency) was added to the petri dish and spread evenly over the surface. Root diffusate (attractant) and water only (control) 0.25% agar plugs were embedded in the agar slurry, either side of the assay arena. Root diffusate was collected from 10 tomato plants, aged 3–6 weeks in 1 litre pots, by pouring 500 ml of ddH20 through the soil three times. Diffusate from each plant was combined, filter sterilised and stored at 4°C for a maximum of 1 month. Root diffusate agar plugs were made by melting 1.25% agar in ddH20, cooling to 50°C before mixing with 4 parts of root diffusate. The agar was then allowed to solidify at room temperature. 100 uNLP pre-treated M. incognita or G. pallida J2s were added by pipette to the centre of the plate. J2s which moved out of the 'dead zone' after 3 hours were counted and their location (+/-) scored. The distribution of J2s were used to create a chemotaxis index for each plate, which formed one replicate, a total of 10 replicates where completed for each uNLP treatment.

G. pallida J2s [3] = assay: Tomato invasion assay with uNLP pre-treated J2s; assay type: in vivo, Globodera pallida; conditions: 100 μM uNLP, 24 h; tomato cv. Moneymaker; relative to controls
Procedure: as §1, §2

M. incognita J2s [4] = assay: Plant protection assay, C. reinhardtii secreting uNLPs; assay type: in vivo, Meloidogyne incognita; conditions: Fig 4A; peptide secreted by transgenic C. reinhardtii culture in tomato invasion arena with 500 J2s; relative to untransformed C. reinhardtii = 100%; mean
Procedure: as §2
(§3) B. subtilis were grown overnight in LB media containing ampicillin (100 μg/ml) at 37°C with shaking, and harvested in the log phase of growth determined by measuring OD600nm. Five ml of culture at 0.5 OD was spun down and the pellet mixed with 3 ml of agar slurry and 500 J2s from either G. pallida or M. incognita. C. reinhardtii clones were grown at 23°C with shaking, cultures in the log phase were measured at OD750 and 5 ml of culture at 0.5 OD was pelleted by centrifugation. C. reinhardtii pellets were mixed with 3 ml of agar slurry and 500 J2s from either G. pallida or M. incognita. Plant invasion assays were performed as described above. […]

G. pallida J2s [5] = assay: as above; assay type: in vivo, Globodera pallida; conditions: Fig 4C; peptide secreted by transgenic C. reinhardtii culture in tomato invasion arena with 500 J2s; control = 100%; mean
Procedure: as §2, §3

G. pallida J2s [6] = assay: Plant protection assay, B. subtilis secreting uNLPs; assay type: in vivo, Globodera pallida; conditions: Fig 4D; peptide secreted by transgenic B. subtilis culture in tomato invasion arena with 500 J2s; control = 100%; mean
Procedure: as §2, §3

[7] = system: S. carpocapsae infective juveniles (IJs); assay: S. carpocapsae host-finding assay (non-target); assay type: in vivo, Steinernema carpocapsae; conditions: Fig 5E; chemotaxis towards insect host Galleria mellonella; 100 IJs incubated 24 h in 100 μM uNLP; n = 5; control 0.2315
Procedure: S. carpocapsae were cultured in Galleria mellonella at 23°C. Infective juveniles (IJs) were collected using a White trap in PBS. Freshly emerged IJs were used for each assay. 100 IJs were incubated for 24 hours in 100 μM of selected uNLPs, and host-finding assays (n = 5) performed as in Morris et al..

SFDSFTGPGFTGLD [Mi-NLP-15b, predicted unamidated NLP perfectly conserved between M. incognita and G. pallida; synthesised, also secreted from transgenic microbes]
effect on host invasion (in words) (M. incognita J2s [1]; 100 μM uNLP, 24 h, tomato cv. Moneymaker, relative to controls): inhibited | % Invasion (M. incognita J2s [1]; Fig 1B, 500 J2s incubated in 100 μM uNLP for 24 h, single tomato seedling, 24 h at 23°C, normalised to negative control = 100%): 32.22% | % Invasion (M. incognita J2s [1]; Fig 3B, 100 nM peptide, 24 h, control = 100%): 69.90% | % Invasion (M. incognita J2s [1]; Fig 3B, 1 µM peptide, 24 h, control = 100%): 59.05% | % Invasion (M. incognita J2s [1]; Fig 3B, 10 µM peptide, 24 h, control = 100%): 54.62% | % Invasion (M. incognita J2s [1]; Fig 3B, 100 µM peptide, 24 h, control = 100%): 35.06% | effect on chemosensation (in words) (G. pallida J2s [2]; 100 μM uNLP, 24 h, relative to controls): inhibits G. pallida chemotaxis | CI score (G. pallida J2s [2]; Fig 2A, J2s incubated in 100 μM uNLP for 24 h, tomato cv. Moneymaker root exudate vs water agar plugs, counted after 3 h, mean of 10 replicates of 100 J2s, control 0.4154): -0.04762 | effect on host invasion (in words) (G. pallida J2s [3]): does not inhibit host invasion | % Invasion (M. incognita J2s [4]): 10.82% | % Invasion (G. pallida J2s [5]): 30.95% | % Invasion (G. pallida J2s [6]): 51.98% | CI score [7]: 0.2225
